The results in this text go back to patent publication US9090599B2, “Heteroarylmethyl amides” (Hoffman-La Roche Inc., priority 2010, dated 2015).

One test addresses T1, human CB1 receptor (Homo sapiens, UniProt P21554).
T1 construct: expressed in transfected cells; host or cells: human embryonic kidney (HEK) cells, Semliki Forest Virus system, membrane preparations
Kind of test: CB1 receptor affinity, [3H]-CP-55,940 displacement, HEK cell membranes. The format is binding. Particulars: read-out: CB1 receptor affinity [% inhibition @ 10 μM]. The procedure:
(§1) The affinity of the compounds of the invention for cannabinoid receptors was determined using membrane preparations of human embryonic kidney (HEK) cells in which the human CB1 receptor is transiently transfected using a Semliki Forest Virus system in conjunction with [3H]-CP-55,940 as radioligand. After incubation of freshly prepared cell membrane preparation with the [^3H]-ligand, with or without addition of compounds of the invention, separation of bound and free ligand was performed by filtration over glass fiber filters. Radioactivity on the filter was measured by scintillation counting.
(§2) The ability of the compounds to displace the radioligand [^3H]-CP-55,940 was measured at a concentration of 10 μM and values provided as [% inhibition @ 10 μM] both for the CB 1 and CB2 receptor assay, The lower % inhibition is, the lower the likelihood of side effects based on CB1 or CB2 receptor inhibition is.

In the next test the target is T2, human CB2 receptor (Homo sapiens, UniProt P34972).
T2 construct: expressed in transfected cells; host or cells: human embryonic kidney (HEK) cells, Semliki Forest Virus system, membrane preparations
T2 sequence (P34972 whole entry): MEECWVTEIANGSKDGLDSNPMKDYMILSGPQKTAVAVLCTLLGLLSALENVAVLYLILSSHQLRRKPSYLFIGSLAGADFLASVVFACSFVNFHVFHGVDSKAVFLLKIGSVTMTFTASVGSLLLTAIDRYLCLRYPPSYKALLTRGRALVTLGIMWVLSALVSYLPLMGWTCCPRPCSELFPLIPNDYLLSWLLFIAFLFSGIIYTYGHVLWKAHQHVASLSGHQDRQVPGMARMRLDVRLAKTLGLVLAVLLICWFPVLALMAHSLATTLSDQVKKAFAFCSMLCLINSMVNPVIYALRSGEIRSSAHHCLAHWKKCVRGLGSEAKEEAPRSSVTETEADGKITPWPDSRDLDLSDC
The experiment in a line: CB2 receptor affinity, [3H]-CP-55,940 displacement, HEK cell membranes. The format is binding. Particulars: 10 μM compound, radioligand [3H]-CP-55,940. As to the method:
as §1, with “cannabinoid CB2” for “cannabinoid”, “CB2” for “CB1”, “[^3H]-CP-55,940” for “[3H]-CP-55,940”
as §2

[1] abbreviates: 10 μM compound, radioligand [3H]-CP-55,940.

Read-outs that look alike come from different tables or passages of the source.

T1 sequence (P21554 whole entry): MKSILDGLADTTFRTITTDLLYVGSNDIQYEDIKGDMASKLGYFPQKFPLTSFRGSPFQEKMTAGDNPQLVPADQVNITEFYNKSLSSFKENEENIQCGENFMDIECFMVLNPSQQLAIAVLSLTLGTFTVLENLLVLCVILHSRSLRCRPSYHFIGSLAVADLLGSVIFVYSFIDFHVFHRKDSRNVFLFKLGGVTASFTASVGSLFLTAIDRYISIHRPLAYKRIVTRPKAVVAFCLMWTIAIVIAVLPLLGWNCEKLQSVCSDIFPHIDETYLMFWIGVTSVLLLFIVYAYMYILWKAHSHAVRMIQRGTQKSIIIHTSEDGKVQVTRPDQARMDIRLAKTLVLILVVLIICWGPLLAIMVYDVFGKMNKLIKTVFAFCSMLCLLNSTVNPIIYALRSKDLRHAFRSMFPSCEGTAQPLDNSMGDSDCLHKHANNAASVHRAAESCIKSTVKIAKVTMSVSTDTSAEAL

As to `O=C(NCc1nc(C(F)(F)F)no1)c1ncc(OCC(F)(F)F)c(-c2ccc(Cl)cc2)n1` [Example 16, 4-(4-chloro-phenyl)-5-(2,2,2-trifluoro-ethoxy)-pyrimidine-2-carboxylic acid (3-trifluoromethyl-[1,2,4]oxadiazol-5-ylmethyl)-amide], the inhibition – broadly, the change of the read-out against control, counted positive when it falls – at 10 µM at human CB1 receptor (setting [1]) was 38%; at human CB2 receptor, 15%.
With `O=C(NCc1csc(C2CC2)n1)c1ccc(OCC2CC2)c(-c2ccc(Cl)cc2)n1` [Example 57, 6-(4-chloro-phenyl)-5-cyclopropylmethoxy-pyridine-2-carboxylic acid (2-cyclopropyl-thiazol-4-ylmethyl)-amide], the inhibition at 10 µM at human CB1 receptor was found to be 31%; at human CB2 receptor, 36%.
In the case of `CC(C)c1nc(CNC(=O)c2cc(-c3ccc(Cl)cc3)c(OCC(F)(F)F)cn2)no1` [Example 39, 4-(4-chlorophenyl)-N-((5-isopropyl-1,2,4-oxadiazol-3-yl)methyl)-5-(2,2,2-trifluoroethoxy)picolinamide], the inhibition at 10 µM turned out to be 26% at human CB1 receptor (setting [1]) and 21% at human CB2 receptor.
For `O=C(NCc1cc(C(F)(F)F)on1)c1ccc(OCC2CC2)c(-c2ccc(Cl)cc2)n1` [Example 58, 6-(4-chloro-phenyl)-5-cyclopropylmethoxy-pyridine-2-carboxylic acid (5-trifluoromethyl-isoxazol-3-ylmethyl)-amide] the same measures were 42% and 19%.
The matching figures for `O=C(NCc1noc(C2CC2)n1)c1ncc(OCC2CC2)c(-c2ccc(Cl)cc2)n1` [Example 13, 4-(4-chloro-phenyl)-5-cyclopropylmethoxy-pyrimidine-2-carboxylic acid (5-cyclopropyl-[1,2,4]oxadiazol-3-ylmethyl)-amide]: 35% and 46%.
For `C[C@H](Oc1cnc(C(=O)NCc2nc(C(F)(F)F)no2)nc1-c1ccc(Cl)cc1)C(F)(F)F` [Example 35, (S)-4-(4-chlorophenyl)-N-((3-(trifluoromethyl)-1,2,4-oxadiazol-5-yl)methyl)-5-(1,1,1-trifluoropropan-2-yloxy)pyrimidine-2-carboxamide], the inhibition at 10 µM on human CB1 receptor (setting [1]) stood at 50%; at human CB2 receptor it was 22%.
On to `Cn1cc(Cl)c(CNC(=O)c2cnc(OCC(F)(F)F)c(-c3ccc(Cl)cc3)c2)n1` [Example 26, N-(4-Chloro-1-methyl-1H-pyrazol-3-ylmethyl)-5-(4-chloro-phenyl)-6-(2,2,2-trifluoro-ethoxy)-nicotinamide], for which the inhibition at 10 µM at human CB1 receptor (setting [1]) amounted to 40%; on human CB2 receptor, 22%.
The matching figures for `COCCOc1ncc(C(=O)NCc2nc(C(F)(F)F)no2)cc1-c1ccc(F)c(F)c1` [Example 96, 5-(3,4-difluorophenyl)-6-(2-methoxyethoxy)-N-((3-(trifluoromethyl)-1,2,4-oxadiazol-5-yl)methyl)nicotinamide]: 45% and 8%.
The matching figures for `O=C(NCc1cc(C2CC2)no1)c1cc(-c2ccc(Cl)cc2)c(OCC(F)(F)F)cn1` [Example 33, 4-(4-chlorophenyl)-N-((3-cyclopropylisoxazol-5-yl)methyl)-5-(2,2,2-trifluoroethoxy)picolinamide]: 33% and 26%.
For `O=C(NCc1cc(C2CC2)no1)c1ccc(OCC(F)(F)F)c(-c2ccc(Cl)cc2)n1` [Example 47, 6-(4-chloro-phenyl)-5-(2,2,2-trifluoro-ethoxy)-pyridine-2-carboxylic acid (3-cyclopropyl-isoxazol-5-ylmethyl)-amide] the same measures were 46% and 16%.
For `Cc1cc(CNC(=O)c2cc(-c3ccc(Cl)cc3)c(OCC(F)(F)F)cn2)no1` [Example 19, 4-(4-chlorophenyl)-N-((5-methylisoxazol-3-yl)methyl)-5-(2,2,2-trifluoro-ethoxy)picolinamide], the figures for the inhibition at 10 µM at human CB1 receptor (setting [1]) and at human CB2 receptor were 30% and 43%, respectively.
The matching figures for `CC(C)c1cc(CNC(=O)c2cc(-c3ccc(Cl)cc3)c(OCC(F)(F)F)nn2)on1` [Example 43, 5-(4-chloro-phenyl)-6-(2,2,2-trifluoro-ethoxy)-pyridazine-3-carboxylic acid (3-isopropyl-isoxazol-5-ylmethyl)-amide]: 37% and 14%.
For `CCc1nc(CNC(=O)c2cnc(OCC3CC3)c(-c3ccc(Cl)cc3)c2)cs1` [Example 10, 5-(4-chloro-phenyl)-6-cyclopropylmethoxy-N-(2-ethyl-thiazol-4-ylmethyl)-nicotinamide] the same measures were 28% and 28%.
For `O=C(NCc1cc(C(F)(F)F)on1)c1cnc(OCC(F)(F)F)c(-c2ccc(Cl)cc2)c1` [Example 50, 5-(4-chloro-phenyl)-6-(2,2,2-trifluoro-ethoxy)-N-(5-trifluoromethyl-isoxazol-3-ylmethyl)-nicotinamide] the same measures were 38% and -5%.
`CC(C)(C)c1nc(CNC(=O)c2ccc(OCC3CC3)c(-c3ccc(Cl)cc3)n2)cs1` [Example 63, 6-(4-chloro-phenyl)-5-cyclopropylmethoxy-pyridine-2-carboxylic acid (2-tert-butyl-thiazol-4-ylmethyl)-amide]: the inhibition at 10 µM was 36% at human CB1 receptor (setting [1]) and 38% at human CB2 receptor.
For `CCc1ccc(-c2cc(C(=O)NCc3nc(C(F)(F)F)no3)cnc2OCC(F)(F)F)cc1` [Example 83, 5-(4-ethylphenyl)-6-(2,2,2-trifluoroethoxy)-N-((3-(trifluoromethyl)-1,2,4-oxadiazol-5-yl)methyl)nicotinamide] the same measures were 44% and -2%.
As for `O=C(NCc1cc(C(F)(F)F)on1)c1cc(-c2ccc(Cl)cc2)c(OCC(F)(F)F)cn1` [Example 45, 4-(4-chlorophenyl)-5-(2,2,2-trifluoroethoxy)-N-((5-(trifluoromethyl)isoxazol-3-yl)methyl)picolinamide], the inhibition at 10 µM on human CB1 receptor is 37%; on human CB2 receptor, -2%.
For `O=C(NCc1nc(C(F)(F)F)no1)c1cnc(OCC(F)(F)F)c(-c2ccc(Cl)c(F)c2)c1` [Example 82, 5-(4-chloro-3-fluorophenyl)-6-(2,2,2-trifluoroethoxy)-N-((3-(trifluoromethyl)-1,2,4-oxadiazol-5-yl)methyl)nicotinamide], the inhibition at 10 µM at human CB1 receptor (setting [1]) is 30%; at human CB2 receptor, 27%.
For `Cc1noc(CNC(=O)c2cnc(OCC(F)(F)F)c(-c3ccc(Cl)cc3)c2)n1` [Example 90, 5-(4-chlorophenyl)-N-((3-methyl-1,2,4-oxadiazol-5-yl)methyl)-6-(2,2,2-trifluoroethoxy)nicotinamide] the same measures were 50% and 14%.
As to `C[C@H](Oc1ncc(C(=O)NCc2ccccn2)nc1-c1ccc(Cl)cc1)C(F)(F)F` [Example 69, (S)-6-(4-chlorophenyl)-N-(pyridin-2-ylmethyl)-5-(1,1,1-trifluoropropan-2-yloxy)pyrazine-2-carboxamide], the values for the inhibition at 10 µM at human CB1 receptor (setting [1]) and on human CB2 receptor were 34% and 40%, respectively.
With `COc1cc(CNC(=O)c2cc(-c3ccc(C)c(Cl)c3)c(OCC(F)(F)F)cn2)on1` [Example 73, 4-(3-chloro-4-methylphenyl)-N-((3-methoxyisoxazol-5-yl)methyl)-5-(2,2,2-trifluoroethoxy)picolinamide], the inhibition at 10 µM at human CB1 receptor was 22%; on human CB2 receptor it was 45%.
As for `COCCOc1ncc(C(=O)NCc2nc(C(F)(F)F)no2)cc1-c1ccc(Cl)c(F)c1` [Example 97, 5-(4-chloro-3-fluorophenyl)-6-(2-methoxyethoxy)-N-((3-(trifluoromethyl)-1,2,4-oxadiazol-5-yl)methyl)nicotinamide], the inhibition at 10 µM at human CB1 receptor came out at 48%; at human CB2 receptor it was 25%.
`O=C(NCc1nc(C(F)(F)F)no1)c1cnc(OC[C@@H]2CCOC2)c(-c2ccc(Cl)cc2)c1` (stereo in doubt) [Example 105, 5-(4-Chloro-phenyl)-6-[(RS)-1-(tetrahydro-furan-3-yl)methoxy]-N-(3-trifluoromethyl-[1,2,4]oxadiazol-5-ylmethyl)-nicotinamide]: the inhibition at 10 µM stood at 47% at human CB1 receptor (setting [1]) and 17% at human CB2 receptor.
`CC(C)c1noc(CNC(=O)c2cc(-c3ccc(Cl)cc3)c(OCC(F)(F)F)cn2)n1` [Example 40, 4-(4-chlorophenyl)-N-((3-isopropyl-1,2,4-oxadiazol-5-yl)methyl)-5-(2,2,2-trifluoroethoxy)picolinamide]: the inhibition at 10 µM at human CB1 receptor (setting [1]) was 29%; on human CB2 receptor, 19%.
Turning to `O=C(NCc1cc(C(F)(F)F)on1)c1cnc(OCC2CC2)c(-c2ccc(Cl)cc2)c1` [Example 66, 5-(4-chloro-phenyl)-6-cyclopropylmethoxy-N-(5-trifluoromethyl-isoxazol-3-ylmethyl)-nicotinamide], the figures for the inhibition at 10 µM on human CB1 receptor (setting [1]) and on human CB2 receptor were 49% and 18%, respectively.
